Columns and labels:
Type in all cases: biochemical
JAK3 = biological target: T1, JAK3 (Homo sapiens, UniProt P52333); assay: Inhibition of a panel of kinases, in vitro HotSpot kinase assay: JAK3; details: D-compounds panel data; 1 μM ATP; read-out: IC50 JAK3
T1 sequence (P52333 1-1124): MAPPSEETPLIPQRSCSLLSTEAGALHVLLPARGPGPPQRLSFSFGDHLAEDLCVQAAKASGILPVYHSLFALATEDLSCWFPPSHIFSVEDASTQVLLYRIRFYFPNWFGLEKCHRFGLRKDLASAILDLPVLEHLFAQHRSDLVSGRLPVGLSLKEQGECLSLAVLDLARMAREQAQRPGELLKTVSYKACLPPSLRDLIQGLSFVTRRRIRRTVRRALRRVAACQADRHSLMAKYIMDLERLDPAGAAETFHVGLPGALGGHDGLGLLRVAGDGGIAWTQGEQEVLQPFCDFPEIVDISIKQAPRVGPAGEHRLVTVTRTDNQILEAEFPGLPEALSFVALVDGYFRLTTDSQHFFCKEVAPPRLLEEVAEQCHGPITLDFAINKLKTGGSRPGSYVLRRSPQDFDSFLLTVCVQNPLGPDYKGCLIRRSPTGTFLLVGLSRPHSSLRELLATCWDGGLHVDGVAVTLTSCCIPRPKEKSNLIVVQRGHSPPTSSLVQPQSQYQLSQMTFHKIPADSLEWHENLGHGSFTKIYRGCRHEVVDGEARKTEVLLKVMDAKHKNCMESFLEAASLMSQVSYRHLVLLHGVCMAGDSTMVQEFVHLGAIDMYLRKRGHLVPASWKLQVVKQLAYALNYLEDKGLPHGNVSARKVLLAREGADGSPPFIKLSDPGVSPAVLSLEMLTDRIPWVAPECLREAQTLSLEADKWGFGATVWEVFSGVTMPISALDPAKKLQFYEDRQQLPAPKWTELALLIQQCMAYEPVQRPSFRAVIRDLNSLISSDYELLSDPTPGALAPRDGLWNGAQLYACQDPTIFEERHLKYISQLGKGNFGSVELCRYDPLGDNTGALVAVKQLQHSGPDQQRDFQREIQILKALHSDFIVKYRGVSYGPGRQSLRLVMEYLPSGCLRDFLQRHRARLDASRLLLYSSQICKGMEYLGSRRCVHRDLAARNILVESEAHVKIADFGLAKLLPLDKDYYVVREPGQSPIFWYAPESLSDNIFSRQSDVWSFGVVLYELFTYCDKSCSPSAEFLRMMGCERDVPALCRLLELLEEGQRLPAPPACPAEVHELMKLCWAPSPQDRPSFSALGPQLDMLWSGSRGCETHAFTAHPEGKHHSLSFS

LCK = LCK (Homo sapiens, UniProt P06239); assay: Inhibition of a panel of kinases, in vitro HotSpot kinase assay: LCK; details: D-compounds panel data; 1 μM ATP; read-out: IC50 LCK
Sequence of LCK (P06239 whole entry): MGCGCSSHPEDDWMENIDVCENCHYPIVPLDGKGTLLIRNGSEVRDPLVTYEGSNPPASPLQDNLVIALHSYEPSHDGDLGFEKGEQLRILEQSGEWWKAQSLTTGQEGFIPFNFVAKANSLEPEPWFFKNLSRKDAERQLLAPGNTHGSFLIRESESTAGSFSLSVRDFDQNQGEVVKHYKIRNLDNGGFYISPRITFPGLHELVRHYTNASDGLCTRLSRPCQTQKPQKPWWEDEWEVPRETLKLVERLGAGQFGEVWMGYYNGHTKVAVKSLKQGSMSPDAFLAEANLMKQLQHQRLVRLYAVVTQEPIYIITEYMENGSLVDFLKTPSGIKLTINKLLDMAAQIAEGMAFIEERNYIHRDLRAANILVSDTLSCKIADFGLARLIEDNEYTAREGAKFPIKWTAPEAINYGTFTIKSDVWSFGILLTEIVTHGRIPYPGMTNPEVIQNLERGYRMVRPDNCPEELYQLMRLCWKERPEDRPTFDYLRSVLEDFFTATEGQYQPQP

ITK = biological target: T2, ITK (Homo sapiens, UniProt Q08881); assay: Inhibition of a panel of kinases, in vitro HotSpot kinase assay: ITK; details: D-compounds panel data; 1 μM ATP
T2 sequence (Q08881 1-620): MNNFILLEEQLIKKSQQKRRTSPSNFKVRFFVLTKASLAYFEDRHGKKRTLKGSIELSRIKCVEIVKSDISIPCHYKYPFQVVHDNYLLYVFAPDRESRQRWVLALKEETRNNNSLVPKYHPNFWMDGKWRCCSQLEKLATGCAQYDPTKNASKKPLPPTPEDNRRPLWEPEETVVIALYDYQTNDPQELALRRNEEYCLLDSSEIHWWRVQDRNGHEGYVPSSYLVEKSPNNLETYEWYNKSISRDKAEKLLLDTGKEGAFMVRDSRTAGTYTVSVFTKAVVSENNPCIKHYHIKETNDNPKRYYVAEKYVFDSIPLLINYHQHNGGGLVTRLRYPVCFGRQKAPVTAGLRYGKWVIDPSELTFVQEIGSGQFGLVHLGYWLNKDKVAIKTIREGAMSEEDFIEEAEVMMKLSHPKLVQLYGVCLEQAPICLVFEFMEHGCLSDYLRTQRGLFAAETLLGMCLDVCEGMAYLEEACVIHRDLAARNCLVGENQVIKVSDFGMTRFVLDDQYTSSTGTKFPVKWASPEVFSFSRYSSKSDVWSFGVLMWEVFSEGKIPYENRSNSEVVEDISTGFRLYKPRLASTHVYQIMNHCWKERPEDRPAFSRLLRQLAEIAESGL
Procedure: (§1) The degree of inhibition of a panel of kinases is determined using the in vitro HotSpot kinase assay (purified enzymes, ^33P-ATP, an appropriate substrate and 1 μM ATP).

EGFR = EGFR (Homo sapiens, UniProt P00533); assay: Inhibition of a panel of kinases, in vitro HotSpot kinase assay: EGFR; details: D-compounds panel data; 1 μM ATP
Sequence of EGFR (P00533 25-1210): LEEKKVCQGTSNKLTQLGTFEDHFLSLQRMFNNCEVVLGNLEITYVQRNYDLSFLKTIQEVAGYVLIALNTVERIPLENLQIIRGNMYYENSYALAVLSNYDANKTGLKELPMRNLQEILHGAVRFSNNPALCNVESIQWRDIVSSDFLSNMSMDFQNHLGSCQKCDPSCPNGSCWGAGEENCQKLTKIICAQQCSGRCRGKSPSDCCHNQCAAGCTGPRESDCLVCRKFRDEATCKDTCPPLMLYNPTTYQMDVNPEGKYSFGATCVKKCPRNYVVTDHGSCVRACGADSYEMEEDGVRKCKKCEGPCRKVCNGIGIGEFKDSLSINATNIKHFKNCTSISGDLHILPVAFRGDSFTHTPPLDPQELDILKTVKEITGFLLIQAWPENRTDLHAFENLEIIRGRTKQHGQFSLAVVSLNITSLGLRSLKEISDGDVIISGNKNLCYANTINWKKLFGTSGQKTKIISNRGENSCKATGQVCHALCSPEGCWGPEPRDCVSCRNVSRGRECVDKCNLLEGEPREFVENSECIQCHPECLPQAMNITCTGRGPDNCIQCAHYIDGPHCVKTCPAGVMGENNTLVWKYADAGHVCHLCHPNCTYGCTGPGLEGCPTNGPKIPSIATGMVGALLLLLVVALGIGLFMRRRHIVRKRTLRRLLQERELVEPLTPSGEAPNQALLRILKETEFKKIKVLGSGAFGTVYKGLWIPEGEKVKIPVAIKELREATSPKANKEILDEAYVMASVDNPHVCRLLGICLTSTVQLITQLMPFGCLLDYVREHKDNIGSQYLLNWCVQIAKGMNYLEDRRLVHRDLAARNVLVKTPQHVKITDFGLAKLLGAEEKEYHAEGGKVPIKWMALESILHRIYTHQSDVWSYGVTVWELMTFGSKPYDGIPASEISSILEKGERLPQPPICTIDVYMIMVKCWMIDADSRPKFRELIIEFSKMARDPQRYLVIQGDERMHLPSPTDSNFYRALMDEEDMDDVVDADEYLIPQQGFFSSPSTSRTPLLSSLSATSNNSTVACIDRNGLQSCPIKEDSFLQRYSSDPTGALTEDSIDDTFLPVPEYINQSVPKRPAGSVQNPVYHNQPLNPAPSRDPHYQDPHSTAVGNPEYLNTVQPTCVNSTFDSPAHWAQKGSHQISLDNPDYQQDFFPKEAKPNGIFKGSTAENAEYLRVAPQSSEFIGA
Procedure: as §1

TEC = biological target: T3, TEC (Homo sapiens, UniProt P42680); assay: Inhibition of a panel of kinases, in vitro HotSpot kinase assay: TEC; details: D-compounds panel data; 1 μM ATP
T3 sequence (P42680 1-631): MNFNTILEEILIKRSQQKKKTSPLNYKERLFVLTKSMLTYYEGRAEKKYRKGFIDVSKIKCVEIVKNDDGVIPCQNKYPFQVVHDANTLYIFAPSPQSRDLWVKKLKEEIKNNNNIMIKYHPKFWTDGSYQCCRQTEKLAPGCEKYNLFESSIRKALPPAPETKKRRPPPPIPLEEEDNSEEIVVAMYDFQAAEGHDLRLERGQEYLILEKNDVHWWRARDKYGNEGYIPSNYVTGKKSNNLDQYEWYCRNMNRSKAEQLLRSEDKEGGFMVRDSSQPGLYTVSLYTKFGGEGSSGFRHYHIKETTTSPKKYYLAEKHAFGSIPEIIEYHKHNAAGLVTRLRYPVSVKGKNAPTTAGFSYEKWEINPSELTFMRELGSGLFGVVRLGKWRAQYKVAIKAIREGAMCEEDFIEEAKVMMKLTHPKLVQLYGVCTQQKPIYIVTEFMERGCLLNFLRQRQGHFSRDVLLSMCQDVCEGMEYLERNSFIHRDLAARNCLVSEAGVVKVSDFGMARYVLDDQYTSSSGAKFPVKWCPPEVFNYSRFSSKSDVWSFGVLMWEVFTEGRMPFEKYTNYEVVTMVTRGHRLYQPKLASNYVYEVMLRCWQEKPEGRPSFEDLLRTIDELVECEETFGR
Procedure: as §1

C[C@@H]1[C@H](NC(=O)c2ccc(C3CC3)c(Cl)c2)CCCN1c1cnc(C(N)=O)c(Nc2ccc(N3CCN(C)CC3)cc2)n1 [Example D-17, 5-[(2R,3R)-3-(3-chloro-4-cyclopropylbenzamido)-2-methylpiperidin-1-yl]-3-{[4-(4-methylpiperazin-1-yl)phenyl]amino}pyrazine-2-carboxamide]
IC50 (JAK3): 1 to 10 µM | IC50 (LCK): 0.1 to 1 µM | IC50 (ITK): 0.1 to 1 µM | IC50 (EGFR): 1 to 10 µM | IC50 (TEC): 0.1 to 1 µM

CC1(c2ccc(Nc3nc(N4CCC[C@@H](n5ccc6cc(C7CC7)ccc6c5=O)C4)cnc3C(N)=O)cc2)CCN(C2CCCC2)CC1 [Example D-177, 3-{[4-(1-cyclopentyl-4-methylpiperidin-4-yl)phenyl]amino}-5-[(3R)-3-(6-cyclopropyl-1-oxo-1,2-dihydroisoquinolin-2-yl)piperidin-1-yl]pyrazine-2-carboxamide]
IC50 (JAK3): 0.1 to 1 µM | IC50 (LCK): 0.01 to 0.1 µM | IC50 (ITK): 0.01 to 0.1 µM | IC50 (EGFR): 0.1 to 1 µM | IC50 (TEC): ≤ 0.01 µM

Cc1cc(Nc2cc(N3CCC[C@@H](NC(=O)N(C)C)[C@H]3C)cnc2C(N)=O)sn1 [Example D-175, 5-[(2R,3R)-3-[(dimethylcarbamoyl)amino]-2-methylpiperidin-1-yl]-3-[(3-methyl-1,2-thiazol-5-yl)amino]pyridine-2-carboxamide]
IC50 (JAK3): 1 to 10 µM | IC50 (LCK): 1 to 10 µM | IC50 (ITK): 1 to 10 µM | IC50 (EGFR): 1 to 10 µM | IC50 (TEC): 1 to 10 µM

Cn1cc(Nc2nc(N3CCC[C@@H](NC(=O)c4ccc(C5CC5)cc4)C3)nnc2C(N)=O)cn1 [Example D-195, 3-[(3R)-3-(4-cyclopropylbenzamido)piperidin-1-yl]-5-[(1-methyl-1H-pyrazol-4-yl)amino]-1,2,4-triazine-6-carboxamide]
IC50 (JAK3): 1 to 10 µM | IC50 (LCK): 0.1 to 1 µM | IC50 (ITK): 0.1 to 1 µM | IC50 (EGFR): > 10 µM | IC50 (TEC): 0.01 to 0.1 µM

C[C@@H]1[C@H](NC(=O)c2ccc3scnc3c2)CCCN1c1cnc(C(N)=O)c(Nc2cnn(C)c2)n1 [Example D-237, N-[(2R,3R)-1-{5-carbamoyl-6-[(1-methyl-1H-pyrazol-4-yl)amino]pyrazin-2-yl}-2-methylpiperidin-3-yl]-1,3-benzothiazole-5-carboxamide]
IC50 (JAK3): 0.1 to 1 µM | IC50 (LCK): 0.01 to 0.1 µM | IC50 (ITK): 0.1 to 1 µM | IC50 (EGFR): 1 to 10 µM | IC50 (TEC): ≤ 0.01 µM

CN1CCN(c2ccc(Nc3nc(N4CCC[C@@H](n5ccc6cc(C7CC7)ccc6c5=O)C4)cnc3C(N)=O)nc2)CC1 [Example D-179, 5-[(3R)-3-(6-cyclopropyl-1-oxo-1,2-dihydroisoquinolin-2-yl)piperidin-1-yl]-3-{[5-(4-methylpiperazin-1-yl)pyridin-2-yl]amino}pyrazine-2-carboxamide]
IC50 (JAK3): > 10 µM | IC50 (LCK): > 10 µM | IC50 (ITK): 1 to 10 µM | IC50 (EGFR): > 10 µM | IC50 (TEC): 1 to 10 µM

C[C@@H]1[C@H](NC(=O)c2ncc(C3CC3)cn2)CCCN1c1cnc(C(N)=O)c(Nc2cnn(C)c2)n1 [Example D-198, 5-[(2R,3R)-3-(5-cyclopropylpyrimidine-2-amido)-2-methylpiperidin-1-yl]-3-[(1-methyl-1H-pyrazol-4-yl)amino]pyrazine-2-carboxamide]
IC50 (JAK3): 0.1 to 1 µM | IC50 (LCK): 0.01 to 0.1 µM | IC50 (ITK): 0.1 to 1 µM | IC50 (EGFR): 1 to 10 µM | IC50 (TEC): 0.01 to 0.1 µM

C[C@@H]1[C@H](NC(=O)c2ccc(C3CC3)cc2F)CCCN1c1cnc(C(N)=O)c(Nc2ccc(N3CCN(C)C[C@@H]3C)cc2)n1 [Example D-12, 5-[(2R,3R)-3-(4-cyclopropyl-2-fluorobenzamido)-2-methylpiperidin-1-yl]-3-({4-[(2S)-2,4-dimethylpiperazin-1-yl]phenyl}amino)pyrazine-2-carboxamide]
IC50 (JAK3): 0.1 to 1 µM | IC50 (LCK): 0.01 to 0.1 µM | IC50 (ITK): 0.1 to 1 µM | IC50 (EGFR): 0.1 to 1 µM | IC50 (TEC): 0.01 to 0.1 µM

CN1CCN(c2ccc(Nc3nc(N4CCC[C@@H](n5ccc6cc(C7CC7)cc(F)c6c5=O)C4)cnc3C(N)=O)cc2)CC1 [Example D-174, 5-[(3R)-3-(6-cyclopropyl-8-fluoro-1-oxo-1,2-dihydroisoquinolin-2-yl)piperidin-1-yl]-3-{[4-(4-methylpiperazin-1-yl)phenyl]amino}pyrazine-2-carboxamide]
IC50 (JAK3): 0.1 to 1 µM | IC50 (LCK): 0.1 to 1 µM | IC50 (ITK): 0.1 to 1 µM | IC50 (EGFR): 0.1 to 1 µM | IC50 (TEC): 0.01 to 0.1 µM

Cn1cc(Nc2nc(N3CCC(F)(F)[C@H](NC(=O)c4ccc(C5CC5)cc4)C3)cnc2C(N)=O)cn1 [Example D-192, 5-[(3R)-3-(4-cyclopropylbenzamido)-4,4-difluoropiperidin-1-yl]-3-[(1-methyl-1H-pyrazol-4-yl)amino]pyrazine-2-carboxamide]
IC50 (JAK3): 1 to 10 µM | IC50 (LCK): > 10 µM | IC50 (ITK): 1 to 10 µM | IC50 (EGFR): > 10 µM | IC50 (TEC): 1 to 10 µM

Cn1cc(Nc2nc(N3CC(NC(=O)c4ccc(C5CC5)cc4)CC(F)(F)C3)cnc2C(N)=O)cn1 (stereo in doubt) [Example D-190, 5-[(5S)-5-(4-cyclopropylbenzamido)-3,3-difluoropiperidin-1-yl]-3-[(1-methyl-1H-pyrazol-4-yl)amino]pyrazine-2-carboxamide]
IC50 (JAK3): 1 to 10 µM | IC50 (LCK): 0.1 to 1 µM | IC50 (ITK): 1 to 10 µM | IC50 (EGFR): 1 to 10 µM | IC50 (TEC): 0.1 to 1 µM

C[C@@H]1[C@H](NC(=O)c2ccc(N(C)C)cc2)CCCN1c1cnc(C(N)=O)c(Nc2ccc(N3CCN(C)CC3)cc2)n1 [Example D-196, 5-[(2R,3R)-3-[4-(dimethylamino)benzamido]-2-methylpiperidin-1-yl]-3-{[4-(4-methylpiperazin-1-yl)phenyl]amino}pyrazine-2-carboxamide]
IC50 (JAK3): 0.1 to 1 µM | IC50 (LCK): 0.01 to 0.1 µM | IC50 (ITK): 0.01 to 0.1 µM | IC50 (EGFR): 0.1 to 1 µM | IC50 (TEC): 0.01 to 0.1 µM

C[C@@H]1[C@H](NC(=O)c2ccc(C3CC3)cc2F)CCCN1c1cnc(C(N)=O)c(Nc2ccc(N3CCN(C)CC3)nc2)n1 [Example D-13, 5-[(2R,3R)-3-(4-cyclopropyl-2-fluorobenzamido)-2-methylpiperidin-1-yl]-3-{[6-(4-methylpiperazin-1-yl)pyridin-3-yl]amino}pyrazine-2-carboxamide]
IC50 (JAK3): 1 to 10 µM | IC50 (LCK): 0.1 to 1 µM | IC50 (ITK): 1 to 10 µM | IC50 (EGFR): 1 to 10 µM | IC50 (TEC): 0.1 to 1 µM

Reference: patent US20210070748A1, “INHIBITORS OF BRUTONS TYROSINE KINASE” (Pharmacyclics LLC, priority 2015, published 2021)
